We go through three compounds from ChEMBL document CHEMBL3526130, “An evaluation of using rat-derived single-dose neuropharmacokinetic parameters to project accurately large animal unbound brain drug concentrations” (Drug Metab Dispos, 2012).

Series [1] can be described thus: AUC(0 to infinity) in Sprague-Dawley rat plasma at 3 mg/kg, sc by LC-MS/MS analysis. The series is classed as ADME, organism-based. The arrangement: time infinity, dose 3 mg/kg, route subcutaneous.
The nature of series [2]: Ratio of drug level in brain to plasma in Sprague-Dawley rat at 3 mg/kg, sc by LC-MS/MS analysis. The series is classed as ADME, organism-based. The arrangement: dose 3 mg/kg, route subcutaneous. The conditions noted are these: read-out: BPR.
Series [3] is described as follows: AUC(0 to 7 hrs) in Sprague-Dawley rat plasma at 3 mg/kg, sc by LC-MS/MS analysis. Format: ADME, organism-based. The arrangement: time < 7 hr, dose 3 mg/kg, route subcutaneous.
A short description of series [4]: Ratio of unbound brain concentration to drug level in cerebrospinal fluid in Sprague-Dawley rat at 3 mg/kg, sc by LC-MS/MS analysis. Details: dose 3 mg/kg, route subcutaneous. The settings on record: in vivo. The series is classed as ADME, organism-based.
A short description of series [5]: AUC(0 to infinity) in Sprague-Dawley rat cerebrospinal fluid at 3 mg/kg, sc by LC-MS/MS analysis. Format: ADME, organism-based. Details: dose 3 mg/kg, route subcutaneous, time infinity.
Series [6] can be described thus: AUC(0 to 7 hrs) in Sprague-Dawley rat cerebrospinal fluid at 3 mg/kg, sc by LC-MS/MS analysis. The series is classed as ADME, organism-based. Details: time < 7 hr, dose 3 mg/kg, route subcutaneous.
Series [7] can be described thus: Ratio of unbound drug level in brain to plasma in Sprague-Dawley rat at 3 mg/kg, sc by LC-MS/MS analysis. Format: ADME, organism-based. The arrangement: dose 3 mg/kg, route subcutaneous.
Series [8] can be described thus: AUC(0 to infinity) in Sprague-Dawley rat brain at 3 mg/kg, sc by LC-MS/MS analysis. Format: ADME, organism-based. The arrangement: dose 3 mg/kg, route subcutaneous, time infinity.
The subject of series [9] is Nucleic Acid. Kind of series: Ratio of drug level in cerebrospinal fluid to unbound plasma concentration in Sprague-Dawley rat at 3 mg/kg, sc by LC-MS/MS analysis. Details: dose 3 mg/kg, route subcutaneous. Format: ADME, organism-based. The conditions noted are these: in vivo.
Series [10] in a line: AUC(0 to 7 hrs) in Sprague-Dawley rat brain at 3 mg/kg, sc by LC-MS/MS analysis. Format: ADME, organism-based. Details: time < 7 hr, dose 3 mg/kg, route subcutaneous.
The nature of series [11]: Ratio of unbound brain concentration to drug level in cerebrospinal fluid in Sprague-Dawley rat at 1 mg/kg, sc by LC-MS/MS analysis. The series is classed as ADME, organism-based. The arrangement: dose 1 mg/kg, route subcutaneous. The settings on record: in vivo.
The nature of series [12]: AUC(0 to infinity) in Sprague-Dawley rat plasma at 1 mg/kg, sc by LC-MS/MS analysis. Format: ADME, organism-based. Details: time infinity, dose 1 mg/kg, route subcutaneous.
Series [13] can be described thus: AUC(0 to 1 hr) in cynomolgus monkey plasma at 0.1 mg/kg, sc by LC-MS/MS analysis. Format: ADME, organism-based, Macaca fascicularis. The arrangement: time < 1 hr, dose 0.1 mg/kg, route subcutaneous.
Series [14] in a line: Unbound fraction in Beagle dog brain at 0.1 mg/kg, sc by LC-MS/MS analysis.
Series [15] in a line: AUC(0 to infinity) in Sprague-Dawley rat cerebrospinal fluid at 1 mg/kg, sc by LC-MS/MS analysis. The arrangement: time infinity, dose 1 mg/kg, route subcutaneous. The series is classed as ADME, organism-based.
Series [16] can be described thus: AUC(0 to 2 hrs) in Beagle dog plasma at 0.1 mg/kg, sc by LC-MS/MS analysis. The series is classed as ADME, organism-based, Canis lupus familiaris. Details: time < 2 hr, dose 0.1 mg/kg, route subcutaneous.
The nature of series [17]: Ratio of unbound brain concentration to drug level in cerebrospinal fluid in Beagle dog at 0.1 mg/kg, sc by LC-MS/MS analysis. Format: ADME, organism-based, Canis lupus familiaris. Details: dose 0.1 mg/kg, route subcutaneous. The conditions noted are these: in vivo.
A short description of series [18]: AUC(0 to 2 hrs) in Beagle dog cerebrospinal fluid at 0.1 mg/kg, sc by LC-MS/MS analysis. Details: time < 2 hr, dose 0.1 mg/kg, route subcutaneous. Format: ADME, organism-based, Canis lupus familiaris.
Series [19] is described as follows: Unbound fraction in cynomolgus monkey brain at 0.1 mg/kg, sc by LC-MS/MS analysis. Details: dose 0.1 mg/kg, route subcutaneous. The series is classed as ADME, organism-based, Macaca fascicularis.
Series [20] is described as follows: Ratio of drug level in brain to plasma in cynomolgus monkey at 0.1 mg/kg, sc by LC-MS/MS analysis. The series is classed as ADME, organism-based, Macaca fascicularis. The arrangement: dose 0.1 mg/kg, route subcutaneous. The settings on record: brain and plasma, read-out: BPR.
A short description of series [21]: Ratio of unbound drug level in brain to plasma in Beagle dog at 0.1 mg/kg, sc by LC-MS/MS analysis. The series is classed as ADME, organism-based, Canis lupus familiaris. Details: dose 0.1 mg/kg, route subcutaneous. The settings on record: brain and plasma.
Series [22] in a line: Ratio of unbound brain concentration to drug level in cerebrospinal fluid in cynomolgus monkey at 0.1 mg/kg, sc by LC-MS/MS analysis. The series is classed as ADME, organism-based, Macaca fascicularis. Details: dose 0.1 mg/kg, route subcutaneous. The settings on record: in vivo.
Series [23] in a line: Unbound fraction in cynomolgus monkey plasma at 0.1 mg/kg, sc by LC-MS/MS analysis. The series is classed as ADME, organism-based, Macaca fascicularis. Details: dose 0.1 mg/kg, route subcutaneous.
Series [24] deals with Nucleic Acid. Kind of series: Ratio of drug level in cerebrospinal fluid to unbound plasma concentration in cynomolgus monkey at 0.1 mg/kg, sc by LC-MS/MS analysis. Format: ADME, organism-based, Macaca fascicularis. Details: dose 0.1 mg/kg, route subcutaneous. The settings on record: in vivo.
Series [25] in a line: AUC(0 to 2 hrs) in Sprague-Dawley rat plasma at 1 mg/kg, sc by LC-MS/MS analysis. Format: ADME, organism-based. The arrangement: time < 2 hr, dose 1 mg/kg, route subcutaneous.
The nature of series [26]: Unbound fraction in Beagle dog plasma at 0.1 mg/kg, sc by LC-MS/MS analysis. The series is classed as ADME, organism-based, Canis lupus familiaris. Details: dose 0.1 mg/kg, route subcutaneous.
A short description of series [27]: AUC(0 to 1 hr) in cynomolgus monkey brain at 0.1 mg/kg, sc by LC-MS/MS analysis. The series is classed as ADME, organism-based, Macaca fascicularis. Details: time < 1 hr, dose 0.1 mg/kg, route subcutaneous.
The nature of series [28]: Ratio of drug level in brain to plasma in Beagle dog at 0.1 mg/kg, sc by LC-MS/MS analysis. Details: dose 0.1 mg/kg, route subcutaneous. The series is classed as ADME, organism-based, Canis lupus familiaris. The settings on record: brain and plasma, read-out: BPR.
The nature of series [29]: AUC(0 to infinity) in Sprague-Dawley rat brain at 1 mg/kg, sc by LC-MS/MS analysis. The series is classed as ADME, organism-based. Details: time infinity, dose 1 mg/kg, route subcutaneous.
Series [30] in a line: AUC(0 to 2 hrs) in Sprague-Dawley rat cerebrospinal fluid at 1 mg/kg, sc by LC-MS/MS analysis. Format: ADME, organism-based. The arrangement: time < 2 hr, dose 1 mg/kg, route subcutaneous.
Series [31] in a line: Ratio of unbound drug level in brain to plasma in cynomolgus monkey at 0.1 mg/kg, sc by LC-MS/MS analysis. Format: ADME, organism-based, Macaca fascicularis. Details: dose 0.1 mg/kg, route subcutaneous. The settings on record: brain and plasma.
A short description of series [32]: AUC(0 to 2 hrs) in Sprague-Dawley rat brain at 1 mg/kg, sc by LC-MS/MS analysis. Format: ADME, organism-based. The arrangement: time < 2 hr, dose 1 mg/kg, route subcutaneous.
A short description of series [33]: Ratio of unbound drug level in brain to plasma in Sprague-Dawley rat at 1 mg/kg, sc by LC-MS/MS analysis. Format: ADME, organism-based. The arrangement: dose 1 mg/kg, route subcutaneous.
The test system of series [34] is Nucleic Acid. Description: Ratio of drug level in cerebrospinal fluid to unbound plasma concentration in Sprague-Dawley rat at 1 mg/kg, sc by LC-MS/MS analysis. The settings on record: in vivo. Format: ADME, organism-based. Details: dose 1 mg/kg, route subcutaneous.
Series [35] is described as follows: AUC(0 to 2 hrs) in Beagle dog brain at 0.1 mg/kg, sc by LC-MS/MS analysis. The series is classed as ADME, organism-based, Canis lupus familiaris. Details: time < 2 hr, dose 0.1 mg/kg, route subcutaneous.
The nature of series [36]: AUC(0 to 1 hr) in cynomolgus monkey cerebrospinal fluid at 0.1 mg/kg, sc by LC-MS/MS analysis. The series is classed as ADME, organism-based, Macaca fascicularis. Details: time < 1 hr, dose 0.1 mg/kg, route subcutaneous.
The nature of series [37]: Ratio of drug level in brain to plasma in Sprague-Dawley rat at 1 mg/kg, sc by LC-MS/MS analysis. The series is classed as ADME, organism-based. The arrangement: dose 1 mg/kg, route subcutaneous. The conditions noted are these: read-out: BPR.

Structures are written as SMILES.

A word on the AUC(0-inf): it is total exposure, with the tail of the curve extrapolated. A word on the AUC(0-t): it is the area under the concentration-time curve up to a stated or last time point. Take `NC(=O)N1c2ccccc2C=Cc2ccccc21` [CARBAMAZEPINE]: the results for the AUC(0-inf) in series [1], in series [5] and in [8] were 2280 ng·h/mL, 458 ng·h/mL and 2550 ng·h/mL, respectively. Further, the Kp in series [2] was 1.12. Besides, the figures for the AUC(0-t) at 7 h in [3], in [6] and in series [10] were 2270 ng·h/mL, 456 ng·h/mL and 2540 ng·h/mL, respectively. For the same compound, the Ratio came out at 0.5 in [4] and 0.9 in series [9]. In series [7], the Kp uu was 0.45.
Usually fraction unbound stands for free concentration divided by total concentration. With `Cc1nc2n(c(=O)c1CCN1CCC(c3noc4cc(F)ccc34)CC1)CCCC2` [RISPERIDONE], the Ratio in [11] came out at 0.67; in [17], 1.67; in [22], 1.82; in [24], 0.49; in series [34] it was 0.35. Moreover, the AUC(0-inf) was found to be 441 ng·h/mL in series [12], 11.9 ng·h/mL in series [15] and 130 ng·h/mL in series [29]. In addition, the AUC(0-t) at 1 h in series [13] was found to be 27.6 ng·h/mL; in series [27] it was 22.6 ng·h/mL; in series [36] it was 1.14 ng·h/mL. Further, the fraction unbound in series [14] was found to be 0.0809; in series [19], 0.0919; in series [23] it was 0.084; in [26] it was 0.083. Moreover, the AUC(0-t) at 2 h was 71.2 ng·h/mL in series [16]; 3.48 ng·h/mL in series [18]; 409 ng·h/mL in series [25]; 11.3 ng·h/mL in [30]; 108 ng·h/mL in series [32]; 72 ng·h/mL in [35]. Moreover, the Kp in series [20] was 0.82; in [28], 1.01; in series [37], 0.26. The values for the Kp uu in series [21], in [31] and in series [33] were 0.99, 0.89 and 0.23, respectively.
For the compound `Nc1nc(O)c2ncn(COC(CO)CO)c2n1` [GANCICLOVIR], the AUC(0-inf) is 1720 ng·h/mL in series [1], 82.5 ng·h/mL in series [5] and 182 ng·h/mL in [8]. Besides, in [2], the Kp was determined as 0.1. Further, the exposure AUC(0-t) at 7 h in series [3] turned out to be 1700 ng·h/mL; in [6] it was 78.4 ng·h/mL; in series [10], 170 ng·h/mL. In addition, the Ratio in [4] was found to be 1.85; in [9], 0.05. Further, the Kp uu in series [7] amounted to 0.09.
